row,Compound,melting point
1,CC(=S)NCC1CN(c2ccc(C(=O)Oc3c(F)c(F)c(F)c(F)c3F)c(F)c2)C(=O)O1 (stereo not given),163 to 164 °C
2,CC(C)(C)OC(=O)Nc1ccc(-c2c[nH]c(=O)cn2)cc1,267 to 269 °C
3,COc1ccc2c(c1)Sc1cc(OC)c(Cl)cc1C(O)C2 (stereo not given),105 to 106 °C
4,Cc1cccnc1-n1c(C)nc2ccccc2c1=O,135 to 137 °C
5,Cc1cccc(C(=O)NC(C)C)c1N(C(=O)c1cc(C(F)(F)F)[nH]n1)c1ncccc1Cl,194 to 195 °C
6,Cc1nnc2ncc(-c3ccccc3F)nn12,200 to 204 °C
7,Cn1nc(O[C@@H]2c3cc([N+](=O)[O-])ccc3OC(CF)(CF)[C@H]2O)ccc1=O (relative stereo),226 to 228 °C
8,CNC(=O)c1c(-c2ccccc2)noc1CC(O)c1ccccc1 (stereo not given),183 to 184 °C
9,Cc1cccc2c1SC1(CC1)C2=O,74 to 75 °C
10,Cc1cc(C2(C(F)(F)F)ON=C(c3ccc(F)cc3)O2)ccc1N (stereo not given),78 to 83 °C
11,CN1C(=O)CCCc2ccc(Nc3ncc(Cl)c(N[C@@H]4CCCC[C@H]4NS(C)(=O)=O)n3)cc21,127 to 130 °C
12,COC(=O)CCc1ccc(OCC(C)NCC(O)c2cccc(Cl)c2)cc1 (stereo not given),65 to 73 °C
13,COc1ccc(-c2csc(Nc3ccc(C)cn3)n2)cc1,246 to 248 °C
14,CCCc1c(OCCCS(=O)(=O)c2ccc(C(=O)OC)cn2)ccc(C(C)=O)c1O,114 to 116 °C
15,Cc1nc2nc(-c3ccc(Cl)cc3)nn2c(=S)n1C,> 300 °C
16,C#Cc1cnn2c(C(F)(F)F)cc(-c3ccc(Cl)c(C)c3)nc12,166 °C
17,C=C(c1ccc(NC(=O)OC(C)(C)C)c(C)c1)C(F)(F)F,86 to 88 °C
18,COC(=O)c1cn2c(n1)COc1ccccc1-2,133 to 134 °C
19,N#CC(C#N)(CCCSC(F)(F)F)CC(F)(F)C(F)(F)C(F)(F)C(F)(F)C(F)(F)F,88 to 90 °C
20,N#CC1CN1C(=O)NC(=O)c1ccc2ccccc2c1 (stereo not given),164 to 166 °C
21,COC(=O)C1CC(C(=O)OC)NC(=O)N1 (stereo not given),178 to 179 °C
22,CC(=O)Oc1ccccc1NC(=O)c1cc(Cl)c(OC(C)=O)c(Cl)c1,154 to 156 °C
23,CC(=Cc1ccccc1)c1cc2c(cc1Cl)C(C)(C)CCC2(C)C,114 °C
24,CC(=O)Oc1ccc(-c2cc(=O)c3cccnc3o2)cc1,167 to 169 °C
25,COc1ccc(C2(C(=O)Oc3ccc(C(=O)NO)cc3)CCCC2)cc1,143 to 144 °C

row,Compound,melting point
1,CC1(Cc2cc3[nH]c(=O)oc3cc2Br)OCCO1,117 to 119 °C
2,CNC(=O)C(=NOC)c1ccccc1COc1ncc(C)cc1C(=O)OC(C)C,165 to 166 °C
3,COCNC(=O)OC(C(Oc1ccc(-c2ccccc2)cc1)n1cncn1)C(C)(C)C (stereo not given),95 to 98 °C
4,Oc1cccc(-c2noc3cc(F)ccc23)c1,144 to 145 °C
5,CC(=NNc1nnc(-n2c(=S)[nH]c3ccccc32)s1)c1ccccn1,> 280 °C
6,Cc1c(NC(=O)CC(C)(C)C)cc2c(c1C)OC(C)(C)C2=O,175 to 176 °C
7,CCC(N)C1CCN(c2c(F)cc3c(=O)c(C(=O)O)cn(C4CC4)c3c2F)C1 (stereo not given),177 to 179 °C
8,CS(=O)(=O)c1ccc(C(Cc2ccc(F)cc2)C(=O)Nc2cncc(Cl)n2)cc1 (stereo not given),192 to 193 °C
9,Cn1cc(C(N)=O)c(=O)c2ccc(C(C)(C)C)cc21,268 to 270 °C
10,Cc1c(C)c2c(c(C)c1OCc1ccccc1)C(=O)CC(C)(COC(C)(C)C)O2 (stereo not given),51 to 62 °C
11,Cn1c(C(F)(F)F)ccc(-c2cc([N+](=O)[O-])c(F)cc2F)c1=O,115 to 118 °C
12,FC(F)(F)c1ccc(Cl)c(-c2cccn3nc(Cl)nc23)c1,156 to 158 °C
13,Cc1cccc(NCC2=NCCN2C(=O)Nc2ccccc2)c1C,137 °C
14,O=C(O)C(O)c1cccc(COc2ccccc2Cl)c1COc1ccccc1Cl (stereo not given),101 to 103 °C
15,CCCCOCCOc1ccc(-c2ccc3c(c2)C=C(C(=O)Nc2ccc(SCc4nncn4CCC)c(C(F)(F)F)c2)CCN3CC(C)C)cc1,131 to 133 °C
16,CCOC(=O)C1CCCCC1(c1ccc(O)c(C(C)(C)C)c1)c1ccc(O)c(C(C)(C)C)c1 (stereo not given),86 °C
17,C[C@@H](NC(=O)c1csc(-c2ccccc2)n1)[C@](O)(Cn1cncn1)c1ccc(F)cc1F,174 to 175 °C
18,Cc1c(C(N)=O)oc2c(C(=O)O)cccc2c1=O,> 250 °C
19,O=C(NCCCN1NC=NN1)c1ccccc1[N+](=O)[O-],148 to 150 °C
20,COc1cc(OC)c(C(=O)/C=C/C(=O)O)c(OC)c1,151 to 153 °C
21,CCc1nn(-c2ccc(Cl)nn2)c(CC)c1[N+](=O)[O-],83 to 85 °C
22,CC(C)(C)c1ccc(OCC2=NC3(O)c4ccc(Cl)cc4CC3S2)cc1 (stereo not given),122 to 124 °C
23,N#Cc1ccc(-c2ccc3c(c2)C2(CCCCC2)C(=O)N3)cc1F,258 to 260 °C
24,CCOCc1nc2c(N)nc3ccccc3c2n1CCC(=O)N1CCOCC1,187 to 189 °C
25,NC(=O)OCC(O)COc1cc(-c2cccc(Cl)c2)on1 (stereo not given),149 to 150 °C
